Results: patent US12435067B2, “Truncated itraconazole analogues and methods of use thereof” (University of Connecticut, priority 2019, dated 2025)
Values after ≈ are worked out from the molar mass of the structure shown. Read-outs that look alike come from different tables or passages of the source.

Tests used:
[1] = tested on: Gli1 mRNA expression in the Hh-dependent murine BCC cell line ASZ001; assay: Hh inhibition: Gli1 mRNA expression in ASZ001 cells (qPCR); format: cell-based; conditions: for IC50: ASZ001 cells
Procedure: In order to continue SAR exploration of this region of the scaffold, efforts sought to synthesize and evaluate analogues that continue the scaffold truncation that was previously probed by removing the phenyl ring on the ‘right side’ of the scaffold and directly appending the 3-phenolic carboxylic acid of 2 to the piperazine amine to provide analogue 3. This analogue was evaluated for its ability to decrease Gli1 mRNA expression in the Hh-dependent murine BCC cell line ASZ001.
(§1) General protocols for cell culture, qPCR, and Hh inhibition in ASZ001 cells, C3H10T1/2 cells, and Sufu^−/− MEFs cells are as previously described (Pace et al. “Repurposing the clinically efficacious antifungal agent itraconazole as an anticancer chemotherapeutic. J. Med. Chem. 2016, 59, 3635-3649; Maschinot et al. “Synthesis and evaluation of third generation vitamin D3 analogues as inhibitors of Hedgehog signaling.” Eur. J. Med. Chem. 2019, 162, 495-506.). HC-04 cells were maintained in Dulbecco's modified Eagle's medium (Gibco Life Technologies) supplemented with 10% heat-inactivated fetal bovine serum (Gibco) and 1% pen-strep (Gibco) at 37° C. in 5% CO2. Cells were split 1:5 every 2-3 days, once they reached ˜80% confluency. Antiproliferation assay against HC-04 cells was using MTS method. The general protocol was the same as described earlier. (Banerjee et al. “Evaluation of vitamin D3 A-ring analogues as hedgehog pathway inhibitors.” Bioorg. Med. Chem. Lett. 2012, 22, pp. 1330-1334.) All data were analyzed with GraphPad Prism 5 and reported values represent the mean±SEM for at least two separate experiments carried out in triplicate for qPCR assay; or performed for at least three separate experiments carried out in quadruplicate for MTS assay.

[2] = Microsomal stability in human liver microsomes; conditions: for Microsomal Stability T1/2 / Microsomal Stability Clint / half-life / microsomal CLint: human liver microsomes; for Microsomal Stability Clint: predicted intrinsic clearance; for half-life / microsomal CLint: human
[3] = tested on: Gli1 mRNA in the Hh-dependent mouse embryonic fibroblast C3H10T1/2 cell line; assay: Gli1 mRNA down-regulation in C3H10T1/2 cells (qPCR); format: cell-based; conditions: Mean ± SEM
Procedure: (§2) Both metabolites retain potent inhibition of Hh signaling (Table 3). […] Based on the improved activity of the truncated analogue 21, which contains approximately half of the intact ITZ scaffold, this analogue was also evaluated in Sufu^−/− mouse embryonic fibroblasts (MEFs) to determine whether Smo is still the most likely target of the metabolite.
as §1

in vitro = format: cell-based, human; conditions: human
Procedure: (§3) The activity for both metabolites prompted a study of their PK profile (Table 3). […] In addition, significant improvements in solubility at pH 7.4 and pH 4.0 compared to ITZ were found for analogue 21. Finally, the general toxicity of compounds 11 and 21 were evaluated by exploring their anti-proliferative activity in HC-04 cells, a human hepatocyte-derived cell line that abundantly expresses drug metabolizing enzymes (Table 5).
as §1

HC-04 cells = assay: in vitro; format: cell-based, human
Procedure: as §3, §1

[4] = tested on: Sufu−/− mouse embryonic fibroblasts (MEFs); assay: Hh inhibition in Sufu−/− MEFs; format: cell-based
Procedure: as §2
General protocols for cell culture, qPCR, and Hh inhibition in ASZ001 cells, C3H10T1/2 cells, and Sufu^−/− MEFs cells are as previously described (Pace et al. “Repurposing the clinically efficacious antifungal agent itraconazole as an anticancer chemotherapeutic. J. Med. Chem. 2016, 59, 3635-3649; Maschinot et al. “Synthesis and evaluation of third generation vitamin D3 analogues as inhibitors of Hedgehog signaling.” Eur. J. Med. Chem. 2019, 162, 495-506.). […] (Banerjee et al. “Evaluation of vitamin D3 A-ring analogues as hedgehog pathway inhibitors.” Bioorg. Med. Chem. Lett. 2012, 22, pp. 1330-1334.) All data were analyzed with GraphPad Prism 5 and reported values represent the mean±SEM for at least two separate experiments carried out in triplicate for qPCR assay; or performed for at least three separate experiments carried out in quadruplicate for MTS assay.

[5] = human, microsomes
[6] = Mus musculus, Gli1 mRNA expression, Mean ± SEM of at least two experiments in triplicate, read-out: ASZ001, IC50
[7] = C3H 10T1/2, Gli1 expression up-regulated by recombinant mouse sonic hedgehog (SHh), read-out: C3H10T1/2, IC50, SHh
[8] = Mus musculus, C3H 10T1/2, Gli1 expression up-regulated by oxysterols (OHCs), read-out: C3H10T1/2, IC50, OHCs
[9] = Gli1 mRNA expression, Mean ± SEM of at least two experiments in triplicate, read-out: ASZ001, IC50

Compound: C[C@]1(c2ccc(Cl)cc2Cl)OC[C@@H](COc2ccc(N3CCN(C(=O)c4cccc(O)c4)CC3)cc2)O1 [Compound 3]
- IC50 [1, 6]: 260 nM
- Solubility, PBS pH 4.0 (PBS solubility): 0.31 μM
- Solubility, PBS pH 7.4 (PBS solubility): 0.17 μM
- Microsomal Stability T1/2 [2]: 15.9 ± 0.2 min
- Microsomal Stability Clint [2]: 43 ± 0.6 µL/min/mg

Compound: C[C@]1(c2ccc(Cl)cc2Cl)OC[C@@H](COc2ccc(N3CCN(C(=O)c4ccc(O)cc4)CC3)cc2)O1 [Compound 4]
- IC50 [1, 6]: 580 nM

Compound: C[C@]1(c2ccc(Cl)cc2Cl)OC[C@@H](COc2ccc(N3CCN(C(=O)c4ccccn4)CC3)cc2)O1 [Compound 5]
- IC50 [1, 6]: 1420 ± 300 nM

Compound: C[C@]1(c2ccc(Cl)cc2Cl)OC[C@@H](COc2ccc(N3CCN(C(=O)c4cccnc4)CC3)cc2)O1 [Compound 6]
- IC50 [1, 6]: 1300 ± 310 nM

Compound: C[C@]1(c2ccc(Cl)cc2Cl)OC[C@@H](COc2ccc(N3CCN(C(=O)c4ccncc4)CC3)cc2)O1 [Compound 7]
- IC50 [1, 6]: 570 nM

Compound: C[C@]1(c2ccc(Cl)cc2Cl)OC[C@@H](COc2ccc(N3CCN(C(=O)c4ccc([N+](=O)[O-])cc4)CC3)cc2)O1 [Compound 8]
- IC50 [1, 6]: 160 nM

Compound: C[C@]1(c2ccc(Cl)cc2Cl)OC[C@@H](COc2ccc(N3CCN(C(=O)c4ccc(N)cc4)CC3)cc2)O1 [Compound 9]
- IC50 [1, 6]: 280 nM

Compound: C[C@]1(c2ccc(Cl)cc2Cl)OC[C@@H](COc2ccc(N3CCN(C(=O)Cc4cccc(O)c4)CC3)cc2)O1 [Compound 10]
- IC50 [1, 6]: 380 ± 40 nM
- Solubility, PBS pH 4.0 (PBS solubility): 0.25 μM
- Solubility, PBS pH 7.4 (PBS solubility): 0.13 μM
- more stable (HLM stability) ([2]; 10 compared with 11, human liver microsomes): approximately 6.5 fold
- Microsomal Stability T1/2 [2]: 20.4 ± 0.4 min
- Microsomal Stability Clint [2]: 33.9 ± 0.6 µL/min/mg

Compound: C[C@]1(c2ccc(Cl)cc2Cl)OC[C@@H](COc2ccc(N3CCN(C(=O)CCc4cccc(O)c4)CC3)cc2)O1 [Compound 11]
- IC50 ([1]; Mus musculus, read-out: IC50 value (anti-Hh activity)): 81 nM
- IC50 [1, 6]: 81 nM
- IC50 [3, 7]: 170 ± 90 nM
- IC50 [3, 8]: 650 ± 70 nM
- GI50 (in vitro): 13.2 ± 0.5 µM
- GI50 (HC-04 cells; human): 13.2 µM
- Solubility, PBS pH 4.0 (PBS solubility): 0.13 μM
- Solubility, PBS pH 7.4 (PBS solubility): 0.03 μM
- Microsomal Stability T1/2 [2]: 3.2 min
- Microsomal Stability Clint [2]: 218 ± 9.7 µL/min/mg

Compound: C[C@]1(c2ccc(Cl)cc2Cl)OC[C@@H](COc2ccc(N3CCN(C(=O)/C=C/c4cccc(O)c4)CC3)cc2)O1 [Compound 12]
- IC50 [1, 6]: 220 ± 30 nM
- loss in Hh inhibitory activity ([1]; trans-alkene 12 compared with 11, ASZ001): approximately 3 fold

Compound: C[C@]1(c2ccc(Cl)cc2Cl)OC[C@@H](COc2ccc(N3CCN(C(=O)CCc4ccc(O)cc4)CC3)cc2)O1 [Compound 13]
- IC50 [1, 6]: 260 ± 30 nM

Compound: C[C@]1(c2ccc(Cl)cc2Cl)OC[C@@H](COc2ccc(N3CCN(C(=O)/C=C/c4ccc(O)cc4)CC3)cc2)O1 [Compound 14, 4-Hydroxy-N-(4-(4-(((2S,4R)-2-(2,4-Dichlorophenyl)-2-Methyl-1,3-Dioxolan-4-yl)Methoxy)Phenyl)Piperazin-1-yl)Cinnamamide]
- IC50 [1, 6]: 360 ± 50 nM

Compound: C[C@]1(c2ccc(Cl)cc2Cl)OC[C@@H](COc2ccc(N3CCN(C(=O)CCc4ccccc4)CC3)cc2)O1 [Compound 15]
- IC50 [1, 6]: 230 nM

Compound: COc1cccc(CCC(=O)N2CCN(c3ccc(OC[C@@H]4CO[C@](C)(c5ccc(Cl)cc5Cl)O4)cc3)CC2)c1 [Compound 16]
- IC50 [1, 6]: 460 nM

Compound: C[C@]1(c2ccc(Cl)cc2Cl)OC[C@@H](COc2ccc(N3CCN(C(=O)CCCc4ccc(O)cc4)CC3)cc2)O1 [Compound 17, 4-Hydroxy-N-(4-(4-(((2S,4R)-2-(2,4-Dichlorophenyl)-2-Methyl-1,3-Dioxolan-4-yl)Methoxy)Phenyl)Piperazin-1-yl)Phenylbutyric Amide]
- IC50 [1, 6]: 470 nM

Compound: C[C@@]1(c2ccc(Cl)cc2Cl)OCC(COc2ccc(N3CCN(C(=O)N/N=C/c4cccc(O)c4)CC3)cc2)O1 (some centres unmarked) [Compound 20]
- less active (Hh inhibition) ([1]; 2R,4R-trans 20 compared with cis 18, ASZ001): approximately 5 fold
- IC50 [1, 6]: 580 nM

Compound: C[C@]1(c2ccc(Cl)cc2Cl)OC[C@@H](COc2ccc(N3CCNCC3)cc2)O1 [Compound 21, 1-(4-(((2S,4R)-2-(2,4-Dichlorophenyl)-2-Methyl-1,3-Dioxolan-4-yl)Methoxy)Phenyl)Piperazine]
- IC50 [1, 6]: 22 nM
- IC50 [3, 7]: 1530 ± 200 nM
- IC50 [3, 8]: 2700 ± 200 nM
- anti-Hh activity in Sufu−/− MEFs [4]: completely abolished
- GI50 (HC-04 cells; human): 27.3 µM
- Solubility, PBS pH 4.0 (PBS solubility): 169.3 μM
- Solubility, PBS pH 7.4 (PBS solubility): 11.7 μM
- Microsomal Stability T1/2 [2]: 50.7 min
- Microsomal Stability Clint [2]: 13.7 ± 0.4 µL/min/mg

Compound: C[C@]1(c2ccc(Cl)cc2Cl)OCC(COc2ccc(N3CCN(C(=O)CCc4ccc(O)c(O)c4)CC3)cc2)O1 (some centres unmarked) [Compound 22]
- IC50 [1, 6]: 89 nM
- solubility (PBS solubility; pH 7.4, aqueous buffer): 0.84 µM (≈ 0.494 µg/mL)
- half-life [2]: 6.6 min
- microsomal CLint [2]: 104.7 ± 0.1 µL/min/mg

Compound: C[C@]1(c2ccc(Cl)cc2Cl)OCC(COc2ccc(N3CCN(CCCc4cccc(O)c4)CC3)cc2)O1 (some centres unmarked) [Compound 23]
- IC50 [1, 6]: 870 nM
- solubility (PBS solubility; pH 4, aqueous buffer): 0.13 µM (≈ 0.0725 µg/mL)
- solubility (PBS solubility; pH 7.4, aqueous buffer): 0.02 µM (≈ 0.0112 µg/mL)
- half-life [2]: 14 min
- microsomal CLint [2]: 50 ± 0.8 µL/min/mg

Compound: CS(=O)(=O)c1ccc(C(=O)Nc2ccc(Cl)c(-c3ccccn3)c2)c(Cl)c1 [Vismodegib, reference compound]
- IC50 [3, 7]: 22 ± 20 nM
- IC50 [3, 8]: 10 ± 12 nM
- GI50 (in vitro): > 100 µM

Compound: Itraconazole [ITZ, reference compound]
- IC50 [1, 9]: 140 ± 20 nM
- IC50 ([3]; Gli1 expression up-regulated by oxysterols (OHCs), read-out: C3H10T1/2, IC50, OHCs): 5900 ± 1300 nM
- IC50 ([3]; Gli1 expression up-regulated by recombinant mouse sonic hedgehog (SHh), read-out: C3H10T1/2, IC50, SHh): 240 ± 200 nM
- GI50 (HC-04 cells): > 50 µM
- Solubility, PBS pH 7.4: 0.80 μM
- Microsomal Stability T1/2 [5]: 27.0 ± 6.2 min

Compound: N-(4-(4-(((2S,4R)-2-(2,4-Dichlorophenyl)-2-Methyl-1,3-Dioxolan-4-yl)Methoxy)Phenyl)Piperazin-l-yl)-2-((3-hydroxyphenyl)methylene)Hydrazinecarboxamide [Compound 18]
- IC50 [1, 9]: 120 nM

Compound: N-(4-(4-(((2S,4R)-2-(2,4-Dichlorophenyl)-2-Methyl-1,3-Dioxolan-4-yl)Methoxy)Phenyl)Piperazin-l-yl)-2-((4-hydroxyphenyl)methylene)Hydrazinecarboxamide [Compound 19]
- IC50 [1, 9]: 960 nM
- Solubility, PBS pH 4.0 (pH 4): 0.05 μM
- Solubility, PBS pH 7.4: 0.02 μM
- Microsomal Stability T1/2 [5]: 11.4 ± 0.2 min
